These results are taken from paper PMC7802073, “Small Molecule Inhibitors of the Bacterioferritin (BfrB)–Ferredoxin (Bfd) Complex Kill Biofilm-Embedded Pseudomonas aeruginosa Cells” (ACS Infectious Diseases, 2020).

In brackets after ≈: the same amount, converted by molar mass. Several values for one entry are separate records, joined by “and”; a condition that tells them apart may be missing. Identical values can stand only once.

The test system of data set [1] is P. aeruginosa PAO1. Nature of the data set: microbe, parasite or virus in culture. The data set is classed as cell-based, Pseudomonas aeruginosa. As to conditions: for secreted pyoverdine relative to untreated control, fluorescence at 460 nm normalized to CFU/mL: KM-5-25 70 μM or KM-5-66 50 μM, 27 h, M63 media; for viability at 50 µM: Pseudomonas aeruginosa, PAO1, 27 h, read-out: viable cells relative to the untreated control. The method, then:
Cultures of P. aeruginosa PAO1 treated with KM-5-25 (70 μM) or KM-5-66 (50 μM) were grown for 27 h prior to diluting the contents of each well in PBS (pH 7.4) and plating the cells on PIA plates for enumeration of CFU/mL. The 500-fold diluted solution was clarified by centrifugation and the pyoverdine in the cell-free supernatant was analyzed by acquiring fluorescence emission spectra (430–550 nm) with excitation at 400 nm (10 nm slit width) and emission at λmax = 460 nm (10 nm slit width) using a PerkinElmer LS50B spectrophotometer.
Figure S5. P. aeruginosa cells treated with 4-aminoisoindoline-1,3-dione derivatives overproduce pyoverdine. (A) P. aeruginosa cultures treated with KM-5-25 (70 µM) or KM-5-66 (50 µM) for 27 h have ~35% of the viable cells in the untreated control. (B) Fluorescence spectra from cell -free supernatant corresponding to untreated cultures ( solid line), treated with KM-5-25 (dashed line), or treated with KM-5-66 (dotted line). (C) Fluorescence intensity normalized to the number of viable […]
pyoverdine than cells in the untreated control. Averages and standard deviations for 3 biological replicates are shown. p < 0.01 denoted by ** and p < 0.001 by *** relative to untreated.
(1 picture or pasted object on this page, not shown here)

Data set [2] deals with P. aeruginosa PAO1. Nature of the data set: Half maximal inhibitory concentration (IC50) on planktonic growth, CFU/mL enumeration. Format: cell-based, Pseudomonas aeruginosa. As to conditions: Pseudomonas aeruginosa, PAO1, defined media, 24 h, 35 °C, 2% DMSO, this work, read-out: IC50. As to the method:
Chemicals were purchased from Fisher Scientific unless otherwise stated. P. aeruginosa PAO1 was obtained from the University of Washington Genome center.[81] The PAO1 strain expressing enhanced yellow fluorescent protein (EYFP) was prepared previously.[26] Clinical isolates of P. aeruginosa were purchased from JMI Laboratories (North Liberty, IA, USA). […] Starter cultures were grown from a single colony at 37 °C and shaking at 220 rpm for 14 h in 5 mL PI media supplemented with 10 μM Fe. Pellicle biofilms were cultured for 48 h at 30 °C in PI media supplemented with 20 μM Fe. Surface-attached biofilms were cultured in AB minimal media[82] supplemented with trace metals [0.15 μM (NH4)2MoO4, 3 μM CuSO4, 2 μM Co(NO3)2, 9.4 μM Na2B4O7, and 7.6 μM ZnSO4], 3 mM glucose and 15 μM Fe. Iron supplementation was carried out by addition of a small volume of filter-sterilized 10 mM (NH4)2Fe(SO4)2 (pH ∼ 2.0) solution. […]; IC50 values (Table 1, Figure S1) were determined as reported previously[25] with small modifications. In brief: precultures of P. aeruginosa PAO1 (5 mL) were grown in LB media for 13 h at 37 °C and 220 rpm in 50 mL conical tubes (VWR International, PA). The cells were centrifuged for 5 min at 4000 rpm and 4 °C, washed two times and then diluted in buffer (100 mM KH2PO4 and 15 mM (NH4)2SO4) to an optical density at 600 nm (OD600) of 0.1. A small volume of compound stock solution (10 mM) was transferred to a microcentrifuge tube, initially diluted with DMSO to 20 μL, and then diluted to 1 mL with preculture cell suspension in defined media with OD600 = 0.0001, so the final DMSO concentration is 2%. The resultant cell suspension (200 μL) was transferred to a clear-bottom polystyrene 96-well plate (VWR) covered with a lid and incubated at 35 °C and 205 cpm for 24 h in a Synergy H1 microplate reader (Biotek Instruments Inc., Vermont). The cell cultures were serially diluted and then plated on PI Agar (PIA; BD biosciences) plates for enumeration of viable cells (CFU/mL). The % growth was calculated from the ratio CFU/mL(treated)/CFU/mL(untreated control). To calculate the IC50 values, the % growth was plotted as a function of compound concentration, expressed as log[compound] (μM), and fitted to the 4-parameter logistic model describing the sigmoid-shaped response pattern (eq 1),[84] where b is the slope factor, max is the upper asymptote (plateau), and min is the lower asymptote. Values are the average and standard deviation from three independent experiments. [drawing 1] 1

The next data set in a line: Aqueous solubility. As to conditions: aqueous media; read-out: soluble in aqueous media to. The data set is classed as physicochemical.
Another data set has as its target BfrB (Pseudomonas aeruginosa, UniProt Q9HY79). Nature of the data set: Dissociation constant (Kd) for BfrB by fluorescence polarization. Format: binding. As to the method: Dissociation constants for the interaction between BfrB and 3-aminoisoindoline-1,3-dione derivatives (Table 1, Figure S1) were measured in vitro with a fluorescence polarization method based on the intrinsic fluorescence of the isoindoline-1,3-dione moiety, as described previously.[25]
25 (A) and KM-5-66 (B) for BfrB, evaluated by fluorescence polarization, as described previously1.
Values were obtained in 100 mM potassium phosphate buffer (pH 7.6) containing 1 mM TCEP and
0.5% DMSO. The initial concentrations of KM-5-25 and KM-5-66 were 5 µM. The Kd values are the
average and standard deviation from three independent measurements. […]

For data set [3], the system named is EYFP-expressing P. aeruginosa PAO1 pellicles. Nature of the data set: Viable cells (CFU/mL) dispersed from pellicle biofilms. The data set is classed as cell-based, Pseudomonas aeruginosa. As to conditions: 24 h; for viable cell count relative to the untreated pellicle (% cell survival): KM-5-25 40 μM (0.6× IC50) or KM-5-66 20 μM (0.5× IC50).
Procedure: Pellicle biofilms of EYFP-expressing P. aeruginosa PAO1 or clinical isolates were grown in PI media supplemented with 20 μM Fe. Starter cultures were diluted to OD600 = 0.001 in 4 mL media, placed in 35 × 10 mm Petri dishes and incubated statically at 30 °C for 48 h. The pellicles were transferred onto circular (1.5 cm diameter) glass coverslips by gently allowing the surface of a coverslip to contact a pellicle. The pellicle-adhered coverslip was washed in PBS and then deposited on top of 1.5 mL AB challenge media contained in a well of a 12-well microplate, with the pellicle exposed to the media. […] The coverslip-adhered pellicles were exposed to challenge media at 30 °C for 24 h, changing the challenge media every 12 h by transferring the pellicle-adhered coverslip to a new plate containing prewarmed challenge media.
Pellicle biofilms were grown as described above. Planktonic and loosely attached cells were washed (3 times) by immersing the coverslip-adhered pellicles (biofilm facing up) into a well of a 12-well plate containing 3 mL PBS, and incubating (5 min) with gentle rocking. To remove the pellicle from the coverslip, break the extracellular matrix and release cells from the biofilm, the coverslip-adhered pellicle was placed in a 50 mL conical tube containing a 2 mL suspension of zirconia beads (0.1 mm diameter, BioSpec Products), 10 mL PBS, 0.2 μg/mL alginate lyase and 0.2 μg/mL DNase. The resultant mixture was incubated at room temperature for 3 min, followed by vigorous vortexing for 4 min. After sedimentation of the zirconia beads, a 100 μL aliquot was used for serial dilution and plating on PIA plates for subsequent enumeration of viable cells (CFU/mL).
[4] abbreviates: 2-day old pellicles, 1.2× IC50 (KM-5-25 80 μM, KM-5-66 50 μM).
Where [5] appears, read: compound at 1.2× IC50 combined with colistin 25× MIC (20 μM).
[6] abbreviates: compound at 1.2× IC50 combined with colistin 25× MIC.
Setting [7] is: compound at 1.2× IC50 combined with colistin 50× MIC (40 μM).
Where [8] appears, read: compound at 1.2× IC50 combined with colistin 50× MIC.
The mark [9] stands for this setting: compound at 1.2× IC50 combined with tobramycin 25× MIC (27 μM).
Where [10] appears, read: compound at 1.2× IC50 combined with tobramycin 25× MIC.
The mark [11] stands for this setting: compound at 1.2× IC50 combined with tobramycin 50× MIC.

Sequence of BfrB (Q9HY79 whole entry): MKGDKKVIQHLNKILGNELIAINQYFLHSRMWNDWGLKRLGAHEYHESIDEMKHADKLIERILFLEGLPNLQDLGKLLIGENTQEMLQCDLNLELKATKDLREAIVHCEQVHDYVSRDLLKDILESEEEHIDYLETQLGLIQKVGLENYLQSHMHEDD

Take `O=C1NC(=O)c2c(NCCCc3cc(O)cc(Cl)c3)cccc21` [KM-5-66, 4-((3-(3-Chloro-5-hydroxyphenyl)propyl)amino)isoindoline-1,3-dione]: the “secreted pyoverdine relative to untreated control, fluorescence at 460 nm normalized to CFU/mL” value in the data set on P. aeruginosa PAO1 [1] is roughly 5 fold. Further, in the data set with P. aeruginosa PAO1 [1], the viability at 50 µM was roughly 35%. For the same compound, in the data set with P. aeruginosa PAO1 [2], the IC50 came to 42 ± 6 µM. Further, the solubility in “Aqueous solubility” was roughly 80 µM (≈ 26.5 µg/mL). Besides, binding on BfrB was characterised by a dissociation constant (Kd) of 0.35 ± 0.05 µM. Moreover, the “% survival relative to cells in the pellicles prior to treatment” value in data set [3] (2-day old pellicles, 0.3× IC50) is “approximately 57%”. Moreover, the “% survival relative to cells in the pretreated biofilm” value in data set [3] (2-day old pellicles, 0.6× IC50) is roughly 21%; in data set [3] (setting [4]), roughly 15%. The “viable cell count relative to the untreated pellicle (% cell survival)” value in data set [3] (2-day old pellicles) is 37% and 37.2%. Also, the “% survival, combination treatment” value is on record as roughly 0.3% in data set [3] (setting [5]), roughly 0.02% in data set [3] (setting [7]), 5% in data set [3] (setting [9]) and 1% in data set [3] (setting [11]). For the same compound, the figures for the “reduction of viable cells relative to treatment with colistin alone” value in data set [3] (setting [6]) and in data set [3] (setting [8]) were “approximately 1.7 log” and roughly 1.9 log, respectively. For the same compound, the “reduction of viable cells relative to treatment with tobramycin alone” value is “approximately 1.5 log” in data set [3] (setting [10]) and roughly 2 log in data set [3] (setting [11]).

In the case of `O=C1NC(=O)c2c(NCc3cc(Cl)ccc3O)cccc21` [KM-5-25, 4-((5-Chloro-2-hydroxybenzyl)amino)isoindoline-1,3-dione], the “secreted pyoverdine relative to untreated control, fluorescence at 460 nm normalized to CFU/mL” value in the data set with P. aeruginosa PAO1 [1] is roughly 5 fold. Further, in the data set on P. aeruginosa PAO1 [1], the viability at 50 µM was roughly 35%. Further, the IC50 in the data set with P. aeruginosa PAO1 [2] stood at 69 ± 7 µM. In addition, in “Aqueous solubility”, the solubility is roughly 110 µM (≈ 33.3 µg/mL). This compound came in with a Kd on BfrB of 4 ± 0.6 µM. Moreover, the “% survival relative to cells in the pretreated biofilm” value was roughly 38% in data set [3] (2-day old pellicles, 0.6× IC50) and roughly 25% in data set [3] (setting [4]). For the same compound, the “viable cell count relative to the untreated pellicle (% cell survival)” value in data set [3] (2-day old pellicles) is 42% and 42.5%. For the same compound, the “% survival, combination treatment” value in data set [3] (setting [5]) was roughly 1%; in data set [3] (setting [7]), roughly 0.5%; in data set [3] (setting [9]), roughly 0.5%; in data set [3] (setting [11]), roughly 0.003%. Moreover, the “reduction of viable cells relative to treatment with colistin alone” value in data set [3] (setting [6]) is roughly 1 log; in data set [3] (setting [8]) it was roughly 0.7 log. The entries for the “reduction of viable cells relative to treatment with tobramycin alone” value in data set [3] (setting [10]) and in data set [3] (setting [11]) were “approximately 2.5 log” and roughly 4.7 log, respectively.
